Assay results as given in patent publication US4950647A, “T cell immunopotentiator” (Nucleic Acid Research Institute, priority 1988, dated 1990).
Entries after “also recorded” stand apart in the source; their conditions may differ.

Legend:
Assay type in all cases: cell-based
[1] = system: human lymphocytes (peripheral blood mononuclear cells); assay: Concanavalin A (Con A) induced lymphocyte proliferation; design: 3H-thymidine incorporation in Con A-stimulated cultures: unit not given here
Protocol: (§1) Peripheral blood mononuclear cells were isolated from heparinized peripheral blood of normal healthy donors as described in Sharma, B. and S. Gupta, "Antigen-specific primary cytotoxic T lymphocyte response in acquired immune deficiency syndrome (AIDS) and AIDS related complex", Clin. Exp. Immunol., 62:296, 1985. Briefly, blood was diluted 1:1 with Hanks balanced salt solution (HBSS). Peripheral blood mononuclear cells were separated on a Ficoll-Hypaque gradient. The peripheral blood mononuclear cells recovered from the interface were washed three times with HBSS and resuspended in RPMI-1640 containing 100 U/ml penicillin, 100 μg/ml streptomycin 2mM L-glutamine (GIBCO, Grand Island, N.Y.), and 10% heat-inactivated pooled A serum (Irvine Scientific, Irvine, Calif.), hereafter referred as complete medium (CM).
The ability of the compound 6-amino-(2-deoxy-α-D-erythropentofuranosyl)-imidazo[4,5,-C]pyridin-4-one to modulate lymphocyte response to plant mitogens was determined by the modified procedure of Sharma, B., O. Kohashi, M. R. Mickey, and P. T. Terasaki, "Effect of water soluble adjuvants on in vitro lymphocyte immunization", Cancer Res. 35:666, 1975. Peripheral blood mononuclear cells were cultured for 72-96 hr with phytohemagglutinin (Difco, Detroit, Mich.), Concanavalin A (Calbiochem, Calif.) or Pokeweed mitogen (GIBCO, Grand Island, N.Y.) in the presence and absence of 6-amino-(2-deoxy-α-D-erythro-pentofuranosyl)-imidazo[4,5,-C]pyridin- 4-one. The culture were set up in quadruplicate and pulsed with [^3 H]-thymidine for 16 hr and the [^3 H] thymidine incorporation was determined.
Peripheral blood mononuclear cells were cultured with different concentrations of Concanavalin A in the presence and absence of 6-amino-(2-deoxy-α-D-erythro-pentofuranosyl)-imidazo[4,5,-C]pyridin- 4-one. Lymphocyte proliferation was determined by ^3 H-thymidine incorporation.

[2] = system: B cells (human peripheral blood mononuclear cells); assay: Staphylococcus aureus cowan (SAC) induced B cell proliferation; design: 3H-thymidine incorporation: unit not given here
Protocol: as §1
Peripheral blood mononuclear cells (1×10^5 /0.2 ml/well) were incubated with different concentrations of Staphylococcus aureus cowan (1:[…] and 1:10,000 dilutions) in the presence and absence of 6-amino-(2-deoxy-α-D-erythro-pentofuranosyl)-imidazo[4,5,-C]pyridin- 4-one for 4 days. The cultures were pulsed with [^3 H]-thymidine and then the incorporation of [^3 H]thymidine was measured.
To further evaluate the effect on B cell response, human peripheral blood mononuclear cells were cultured with Staphylococcus aureus cowan in the presence and absence of 6-amino-(2-deoxy-α-D-erythro-pentofuranosyl)-imidazo[4,5,-C]pyridin- 4-one.

[3] = system: human mixed lymphocyte culture; assay: Mixed lymphocyte response / culture (alloantigens)
Protocol: as §1
Peripheral blood mononuclear cells (1×10^5 /0.2 ml/well) from donor-A were cultured together with different numbers of peripheral blood mononuclear cells ([…]) of peripheral blood mononuclear cells from the other donor for 96 hr as previously described above for the lymphocyte response to plant mitogens. Cultures were pulsed with [^3 H]-thymidinefor additional 16 hrs.

[4] = donor 1, Con A 0.25 mg/0.2 ml, compound (0.05)
[5] = donor 1, Con A 1.0 mg/0.2 ml, compound (0.006)
[6] = donor 1, Con A 4.0 mg/0.2 ml, compound (0.038)
[7] = donor 2, Con A 0.13 mg/0.2 ml, compound (0.2)
[8] = donor 2, Con A 0.13 mg/0.2 ml, compound (0.4)
[9] = donor 2, Con A 0.25 mg/0.2 ml, compound (0.2)
[10] = donor 2, Con A 0.25 mg/0.2 ml, compound (0.4)
[11] = donor 2, Con A 2.0 mg/0.2 ml, compound (0.025)
[12] = donor 3, Con A 0.13 mg/0.2 ml, compound (0.0125)
[13] = donor 3, Con A 0.13 mg/0.2 ml, compound (0.4)
[14] = donor 3, Con A 0.25 mg/0.2 ml, compound (0.05)
[15] = donor 3, Con A 0.25 mg/0.2 ml, compound (0.4)
[16] = donor 3, Con A 2.0 mg/0.2 ml, compound (0.05)
[17] = donor 3, Con A 2.0 mg/0.2 ml, compound (O.4)
[18] = donor 4, Con A 0.05 mg/0.2 ml, compound (0.025)
[19] = donor 4, Con A 0.13 mg/0.2 ml, compound (0.05)
[20] = donor 4, Con A 0.25 mg/0.2 ml, compound (0.05)
[21] = donor 5, Con A 0.5 mg/0.2 ml, compound (0.05)
[22] = donor 5, Con A 2.0 mg/0.2 ml, compound (0.025)

Nc1cc2c(ncn2[C@@H]2C[C@H](O)[C@@H](CO)O2)c(O)n1 [Test Compound, 6-amino-1-(2-deoxy-α-D-erythro-pentofuranosyl)imidazo[4,5-C]-pyridin-4-one]
increase in lymphocyte response to Concanavalin A [1]: marked increase
mean increase of Con A response ([1]; Table IV): 109%
suppressive effect on Con A response ([1]; Table IV): slight suppressive effect in only one case
3H-thymidine incorporation in Con A-stimulated cultures [1, 4]: 49279 ± 2732
% Potentiation [1, 4]: 32%
3H-thymidine incorporation in Con A-stimulated cultures [1, 5]: 71105 ± 4015
% Potentiation [1, 5]: 34%
3H-thymidine incorporation in Con A-stimulated cultures [1, 6]: 99322 ± 8655
% Potentiation [1, 6]: 43%
3H-thymidine incorporation in Con A-stimulated cultures [1, 7]: 18607 ± 2157
% Potentiation [1, 7]: 318%
3H-thymidine incorporation in Con A-stimulated cultures [1, 8]: 31068 ± 2678
% Potentiation [1, 8]: 599%
3H-thymidine incorporation in Con A-stimulated cultures [1, 9]: 44958 ± 2248
% Potentiation [1, 9]: 203%
3H-thymidine incorporation in Con A-stimulated cultures [1, 10]: 48354 ± 3336
% Potentiation [1, 10]: 226%
3H-thymidine incorporation in Con A-stimulated cultures [1, 11]: 162317 ± 10872
% Potentiation [1, 11]: 29%
3H-thymidine incorporation in Con A-stimulated cultures [1, 12]: 29693 ± 4998
% Potentiation [1, 12]: 50%
3H-thymidine incorporation in Con A-stimulated cultures [1, 13]: 39902 ± 2918
% Potentiation [1, 13]: 102%
3H-thymidine incorporation in Con A-stimulated cultures [1, 14]: 57780 ± 9762
% Potentiation [1, 14]: 36%
3H-thymidine incorporation in Con A-stimulated cultures [1, 15]: 51010 ± 3861
% Potentiation [1, 15]: 20%
3H-thymidine incorporation in Con A-stimulated cultures [1, 16]: 122692 ± 3643
% Potentiation [1, 16]: 12%
3H-thymidine incorporation in Con A-stimulated cultures [1, 17]: 98613 ± 4737
% Potentiation [1, 17]: -11%
3H-thymidine incorporation in Con A-stimulated cultures [1, 18]: 43957 ± 6053
% Potentiation [1, 18]: 54%
3H-thymidine incorporation in Con A-stimulated cultures [1, 19]: 44234 ± 5027
% Potentiation [1, 19]: 110%
3H-thymidine incorporation in Con A-stimulated cultures [1, 20]: 39059 ± 5098
% Potentiation [1, 20]: 49%
3H-thymidine incorporation in Con A-stimulated cultures [1, 21]: 71303 ± 3633
% Potentiation [1, 21]: 33%
3H-thymidine incorporation in Con A-stimulated cultures [1, 22]: 75046 ± 1495
% Potentiation [1, 22]: 16%
suppression of SAC induced B cell proliferation [2]: slight suppression of B cell proliferation in some cases
3H-thymidine incorporation ([2]; SAC 1:100, 0.0125 mM): 31582 ± 5535
3H-thymidine incorporation ([2]; SAC 1:100, 0.025 mM): 30876 ± 1757
3H-thymidine incorporation ([2]; SAC 1:100, 0.05 mM): 31036 ± 2225
3H-thymidine incorporation ([2]; SAC 1:100, 0.6 mM): 31549 ± 1496
3H-thymidine incorporation ([2]; SAC 1:1000, 0.0125 mM): 18079 ± 829
3H-thymidine incorporation ([2]; SAC 1:1000, 0.025 mM): 18897 ± 1334
3H-thymidine incorporation ([2]; SAC 1:1000, 0.05 mM): 17240 ± 1634
3H-thymidine incorporation ([2]; SAC 1:1000, 0.2 mM): 16618 ± 2378
augmenting effect on SAC induced B cell proliferation ([2]; listed as 6-Amino-(2-deoxy-α-D-erythro-pentofuranosyl)-imidazo[4,5,-C]pyridin-4-one): neither an effect on Staphylococcus aureus cowan induced B cell proliferation; also recorded: no augmenting effect
effect on mixed lymphocyte response ([3]; 2-way mixed lymphocyte culture): markedly increased the mixed lymphocyte response in a dose dependent manner in most of the cases
maximal increase of mixed lymphocyte response ([3]; 2-way mixed lymphocyte culture): 91%
3H-thymidine incorporation in MLC ([3]; A + B (0.5 × 10^5), 0.0125 mM): 14814 ± 929 CPM
3H-thymidine incorporation in MLC ([3]; A + B (0.5 × 10^5), 0.025 mM): 18978 ± 1048 CPM
3H-thymidine incorporation in MLC ([3]; A + B (0.5 × 10^5), 0.05 mM): 21399 ± 1759 CPM
3H-thymidine incorporation in MLC ([3]; A + B (0.5 × 10^5), 0.2 mM): 22448 ± 1609 CPM
3H-thymidine incorporation in MLC ([3]; A + B (0.5 × 10^5), 0.4 mM): 21593 ± 3007 CPM
3H-thymidine incorporation in MLC ([3]; A + B (1 × 10^5), 0.0125 mM): 26858 ± 2392 CPM
3H-thymidine incorporation in MLC ([3]; A + B (1 × 10^5), 0.025 mM): 21794 ± 7136 CPM
3H-thymidine incorporation in MLC ([3]; A + B (1 × 10^5), 0.05 mM): 33532 ± 1732 CPM
3H-thymidine incorporation in MLC ([3]; A + B (1 × 10^5), 0.2 mM): 30790 ± 1912 CPM
3H-thymidine incorporation in MLC ([3]; A + B (1 × 10^5), 0.4 mM): 30261 ± 1835 CPM
3H-thymidine incorporation in MLC ([3]; A + B (2 × 10^5), 0.0125 mM): 18608 ± 2511 CPM
3H-thymidine incorporation in MLC ([3]; A + B (2 × 10^5), 0.025 mM): 23548 ± 4439 CPM
3H-thymidine incorporation in MLC ([3]; A + B (2 × 10^5), 0.05 mM): 25299 ± 4479 CPM
3H-thymidine incorporation in MLC ([3]; A + B (2 × 10^5), 0.2 mM): 29209 ± 2804 CPM
3H-thymidine incorporation in MLC ([3]; A + B (2 × 10^5), 0.4 mM): 27940 ± 3679 CPM
3H-thymidine incorporation in MLC ([3]; B + A (0.5 × 10^5), 0.0125 mM): 17045 ± 982 CPM
3H-thymidine incorporation in MLC ([3]; B + A (0.5 × 10^5), 0.025 mM): 19538 ± 3053 CPM
3H-thymidine incorporation in MLC ([3]; B + A (0.5 × 10^5), 0.05 mM): 20799 ± 1068 CPM
3H-thymidine incorporation in MLC ([3]; B + A (0.5 × 10^5), 0.2 mM): 19346 ± 20799 CPM
3H-thymidine incorporation in MLC ([3]; B + A (0.5 × 10^5), 0.4 mM): 13779 ± 3043 CPM
3H-thymidine incorporation in MLC ([3]; B + A (2 × 10^5), 0.0125 mM): 18538 ± 1601 CPM
3H-thymidine incorporation in MLC ([3]; B + A (2 × 10^5), 0.025 mM): 22129 ± 3893 CPM
3H-thymidine incorporation in MLC ([3]; B + A (2 × 10^5), 0.05 mM): 24362 ± 2936 CPM
3H-thymidine incorporation in MLC ([3]; B + A (2 × 10^5), 0.2 mM): 27737 ± 2105 CPM
3H-thymidine incorporation in MLC ([3]; B + A (2 × 10^5), 0.4 mM): 28986 ± 1448 CPM
